Experimental data: paper PMC12177125, “Anticancer, antimicrobial and molecular docking analysis of newly synthesized iodoquinazoline derivatives” (AMB Express, 2025)
≈ marks a conversion by molar mass, not a printed value. Where “and” joins values, the source holds several entries; their conditions need not be identical. Equal values may be shown once. Entries after “also recorded” stand apart in the source; their conditions may differ. Read-outs that look alike come from different tables or passages of the source.

How the values were obtained:
[1] = test system: HeLa (human cervical cancer); assay: MTT cytotoxicity assay, HeLa; format: cell-based; settings: 96 h continuous exposure, read-out: In vitro antitumor activities (IC50) HeLa (Cervical)
Excerpt: (§1) Four immortalized human cancer cell lines served as a panel for testing the compounds' cytotoxicity. The STAT3-null A4 cell line (with homozygously deleted STAT3) is a sub-line of the DLD1 colorectal carcinoma cell line and was a gift from Professor David Thurston, Emeritus Professor of Drug Discovery, King’s College London. The American Type Culture Collection and LGC provided the cell lines for HeLa (human cervical cancer), MIA-PaCa-2 (human pancreatic adenocarcinoma), MDA MB231 (triple negative human breast cancer), and NCI H1975 (human non-small cell lung cancer). Every cell line was kept in monolayer culture in 75 cm^2 flasks (TPP, Switzerland) at 37 °C in a humidified environment containing 5% CO2. The HeLa line was kept in Dulbecco's Modified Eagles Media (DMEM; Invitrogen), which was enhanced with L-glutamine (2 mM; Invitrogen), non-essential amino acids (1 x; Invitrogen), 10% v/v fetal bovine serum, and Penicillin–Streptomycin (1% v/v; Invitrogen).
(§2) Dulbecco's MEM was utilized for MIA PaCa2, and it was enhanced with fetal calf serum (10%, Biosera UK) and L-glutamine (2 mM; Invitrogen). The following materials were employed for sub-culturing: L-glutamine (2 mM; Invitrogen), fetal bovine serum (10%, Biosera UK), high glucose DMEM (4.5 g/l; Invitrogen), Penicillin–Streptomycin (1% v/v, Invitrogen), and non-essential amino acids (1x; Invitrogen). Penicillin–Streptomycin (1% v/v, Invitrogen) and fetal bovine serum (10% v/v; Invitrogen) were added to Roswell Park Memorial Institute Medium 1640 (RPMI 1640, Invitrogen) to sustain the NCI H1975 cell lines. Cells were passaged by rinsing them in PBS (GIBCO 14040, Invitrogen, UK), culturing them with trypsin (GIBCO 25300, Invitrogen, UK), and then reseeding them into new media. Cells were counted for seeding on a non-adherent suspension of cells that were rinsed in PBS, trypsinized, centrifuged at 8 °C for 5 min at 8000 rpm, and then re-suspended in new media using a Neubauer hemocytometer (Assistant, Germany) by microscopy (Nikon, USA).
(§3) Using the proper medium, the cells were cultured under standard cell culture conditions at 37 °C in a humidified atmosphere with 5% CO2. Depending on the cell line, 5,000–20,000 cells were added per well after the cell count was adjusted to 10^5 cells/mL. After a 24-h incubation period, 1 μL of the suitable inhibitor doses were applied in triplicate to the wells (Freimoser et al. [1999]). The MTT colorimetric test (3-(4,5-Dimethylthiazol-2-yl)-2,5-diphenyltetrazolium bromide) (Lancaster Synthesis Ltd, UK) was used to assess the cytotoxicity of each chemical after 96 h of continuous exposure (Freimoser et al. [1999]). Using an Envision Plate Reader from PerkinElmer, USA, spectrophotometry was used to measure absorbance at λ = 570 nm. Using the Prism Graphpad Prism® program, a dose–response analysis was used to get the IC50 values. MDA MB231; HeLa; MIA Cell lysis buffer was added to PaCa2 cells after they had been exposed to different doses of chemical 3e. The cells were then collected. Following the electrophoresis of total cell lysates on precast TGX gels, β-actin and CAXII antibodies were immunoblotted (Ghomashi et al. [2023]). Doxorubicin was used as a positive control (Ghomashi et al. [2023]).

[2] = test system: MDA MB231 (triple negative human breast cancer); assay: MTT cytotoxicity assay, MDA MB231; format: cell-based; settings: MDA-MB-231, 96 h continuous exposure, read-out: In vitro antitumor activities (IC50) MDA MB231 (Breast)
Excerpt: as §1, §2, §3

[3] = test system: NCI H1975 (human non-small cell lung cancer); assay: MTT cytotoxicity assay, NCI H1975; format: cell-based; settings: 96 h continuous exposure, read-out: In vitro antitumor activities (IC50) NCI H1975 (non-small cell Lung)
Excerpt: as §1, §2, §3

[4] = test system: four tested tumor cell lines; assay: MTT cytotoxicity assay, panel of the four tumor cell lines; format: cell-based, human; settings: for IC50: Homo sapiens, range across HeLa, MDA MB231, MIA PaCa2, NCI H1975, read-out: IC50 / concentration stopping growth, range over the four tumor cell lines
Excerpt: as §1, §2
Using the proper medium, the cells were cultured under standard cell culture conditions at 37 °C in a humidified atmosphere with 5% CO2. Depending on the cell line, 5,000–20,000 cells were added per well after the cell count was adjusted to 10^5 cells/mL. After a 24-h incubation period, 1 μL of the suitable inhibitor doses were applied in triplicate to the wells (Freimoser et al. [1999]). The MTT colorimetric test (3-(4,5-Dimethylthiazol-2-yl)-2,5-diphenyltetrazolium bromide) (Lancaster Synthesis Ltd, UK) was used to assess the cytotoxicity of each chemical after 96 h of continuous exposure (Freimoser et al. [1999]). Using an Envision Plate Reader from PerkinElmer, USA, spectrophotometry was used to measure absorbance at λ = 570 nm. […]

[5] = test system: MIA-PaCa-2 (human pancreatic adenocarcinoma); assay: MTT cytotoxicity assay, MIA PaCa2; format: cell-based; settings: 96 h continuous exposure, read-out: In vitro antitumor activities (IC50) MIA PaCa2 (Pancreatic)
Excerpt: as §1, §2, §3

[6] = test system: C. albicans (CA) ATCC 14053; assay: Broth microdilution MIC, C. albicans; format: cell-based; settings: Candida albicans, ATCC14053, CLSI
Description: (§4) The five newly synthesized compounds were first qualitatively evaluated for antibacterial and antifungal activities using Muller-Hinton agar medium (MHA) through the agar well diffusion technique as previously described (Balouiri et al. [2016]). The bacterial test was performed against the following standard strains: S. aureus (SA) ATCC 25913, E. coli (EC) ATCC 25922, P. aeruginosa (PA) ATCC 27853, K. pneumoniae (KP) ATCC 49619. The antifungal activity was evaluated against C. albicans (CA) ATCC 14053 (CLSI [2021]). A bacterial culture and preparation of wells on a seeded MHA plate was performed as previously described (Isleem et al. [2025]). The experiment was done in triplicate according to CLSI guidelines (CLSI [2021]). Secondly, the compounds that gave positive inhibition zones were selected for MIC determination using broth microdilution assay according to CLSI guidelines (CLSI [2021]). […]

[7] = target: T1, carbonic anhydrase XII (CAXII) (Bos taurus, UniProt P00921); assay: Carbonic anhydrase (CAXII) inhibition, 4-nitrophenyl acetate, 96-well plate; format: biochemical, bovine
T1 construct: purified bovine erythrocyte CA-II; from tissue; host or cells: bovine erythrocytes
T1 sequence (P00921 2-260): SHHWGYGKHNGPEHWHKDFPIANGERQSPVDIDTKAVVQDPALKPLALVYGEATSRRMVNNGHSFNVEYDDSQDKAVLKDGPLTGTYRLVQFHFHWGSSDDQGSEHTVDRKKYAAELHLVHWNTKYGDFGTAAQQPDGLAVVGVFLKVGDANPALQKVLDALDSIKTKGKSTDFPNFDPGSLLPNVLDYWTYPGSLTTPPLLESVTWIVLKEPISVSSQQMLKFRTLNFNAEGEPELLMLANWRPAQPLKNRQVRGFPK

E. coli (EC) ATCC 25922 [8] = assay: Broth microdilution MIC, E. coli; format: cell-based; settings: Escherichia coli, ATCC25922, CLSI
[9] = test system: C. albicans (CA) ATCC 14053; assay: Agar well diffusion, C. albicans; format: cell-based, Candida albicans; settings: average of triplicate
Description: as §4

[10] = test system: S. aureus (SA) ATCC 25913; assay: Broth microdilution MIC, S. aureus; format: cell-based; settings: Staphylococcus aureus, ATCC25913, CLSI
[11] = test system: S. aureus (SA) ATCC 25913; assay: Agar well diffusion, S. aureus; format: cell-based, Staphylococcus aureus; settings: average of triplicate
Description: as §4

[12] = test system: P. aeruginosa (PA) ATCC 27853; assay: Agar well diffusion, P. aeruginosa; format: cell-based, Pseudomonas aeruginosa; settings: average of triplicate
Description: as §4

E. coli (EC) ATCC 25922 [13] = assay: Agar well diffusion, E. coli; format: cell-based, Escherichia coli; settings: average of triplicate
Description: as §4

[14] = test system: STAT3-null A4 cell line (sub-line of DLD1 colorectal carcinoma); assay: MTT cytotoxicity assay, A4 control cell line; format: cell-based; settings: Homo sapiens, DLD-1, 96 h continuous exposure, read-out: In vitro antitumor activities (IC50) A4 Cell line (Control cell line)
Excerpt: as §1, §2, §3

[15] = test system: P. aeruginosa (PA) ATCC 27853; assay: Broth microdilution MIC, P. aeruginosa; format: cell-based; settings: Pseudomonas aeruginosa, ATCC27853, CLSI
[16] = read-out: CAXII inhibitory activity (IC50)

| SMILES | IC50 [1] [µM] | IC50 [2] [µM] | IC50 [3] [µM] | IC50 [4] [µM] | IC50 [5] [µM] | MIC [6] [µg/mL] | IC50 [7, 16] | MIC (E. coli (EC) ATCC 25922 [8]) [µg/mL] | Inhibition Zone CA ATCC 14053 [9] [mm] | MIC [10] [µg/mL] | Inhibition Zone SA ATCC 25913 [11] [mm] | Inhibition Zone PA ATCC 27853 [12] [mm] | Inhibition Zone EC ATCC 25922 (E. coli (EC) ATCC 25922 [13]) [mm] | IC50 [14] [µM] | MIC [15] [µg/mL] | Anticancer activity against the four tested tumor cell lines (in words) [4] | IC50 ([7]; text of b65, unit printed nM, read-out: CAXII inhibition (converted)) [nM] |
| --- | --- | --- | --- | --- | --- | --- | --- | --- | --- | --- | --- | --- | --- | --- | --- | --- | --- |
| COc1cccc2c1C(=O)c1c(O)c3c(c(O)c1C2=O)C[C@@](O)(C(=O)CO)C[C@@H]3O[C@H]1C[C@H](N)[C@H](O)[C@H](C)O1 [Doxorubicin, reference compound] | 3.25 ± 0.5 | 2.7 ± 0.6 | 2.8 ± 0.5 | 2.3 to 3.25 | 2.3 ± 0.6 | – | – | – | – | – | – | – | – | – | – | – | – |
| O=S(=O)(Nc1nccs1)c1ccc(Nc2nc(-c3ccccc3)nc3ccc(I)cc23)cc1 [Compound 3c, 6-Iodo-2-phenyl-4-(4-(thiazol-2-yl)aminosulphonylphenyl-amino) quinazoline] | 4 ± 0.66 | 6.4 ± 0.9 | 8 ± 0.5 | 4 to 8 | 5.5 ± 0.8 | 4 (≈ 6.83 µM) | 3690 nM | 4 (≈ 6.83 µM) | 16 | 1 (≈ 1.71 µM) | 22 | 12 | 15 | > 50 | 16 (≈ 27.3 µM) | – | – |
| NS(=O)(=O)c1ccc(Nc2ncnc3ccc(I)cc23)cc1 [Compound 3a, 6-Iodo-4-(4-aminosulphonylphenyl-amino) quinazoline] | 10.5 ± 1.6 | 12 ± 1.25 | 13.2 ± 1.5 | – | 14 ± 1.6 | 16 (≈ 37.5 µM) | 9510 nM | 8 (≈ 18.8 µM) | 10 | 8 (≈ 18.8 µM) | 14 | 0 | 10 | > 50 | – | – | – |
| COc1ccc(-c2nc(Nc3ccc(S(=O)(=O)Nc4nccs4)cc3)c3cc(I)ccc3n2)cc1OC [Compound 3e, 6-Iodo-2-(3,4-dimethoxyphenyl)-4-(4-(thiazol-2-yl)aminosulphonylphenyl-amino)-quinazoline] | > 50 | > 50 | > 50 | – | > 50 | 16 (≈ 24.8 µM) | > 50000 nM | 32 (≈ 49.6 µM) | 12 | 16 (≈ 24.8 µM) | 14 | 10 | 10 | > 50 | 32 (≈ 49.6 µM) | devoid of anticancer activities; also recorded: weak activity | – |
| COc1ccc(-c2nc(Nc3ccc(S(=O)(=O)Nc4nccs4)cc3)c3cc(I)ccc3n2)cc1 [Compound 3d, 6-Iodo-2-(4-methoxyphenyl)-4-(4-(thiazol-2-yl)aminosulphonylphenyl-amino)-quinazoline] | 8.2 ± 2.1 | 6.4 ± 1.76 | 12.3 ± 0.9 | – | 6.1 ± 1.3 | 8 (≈ 13 µM) | 8190 nM | 32 (≈ 52 µM) | 12 | 4 (≈ 6.5 µM) | 16 | 12 | 10 | > 50 | 32 (≈ 52 µM) | – | 8910 |
| OC(Cn1cncn1)(Cn1cncn1)c1ccc(F)cc1F [Fluconazole, reference compound] | – | – | – | – | – | 1 (≈ 3.27 µM) | – | – | 20 | – | – | – | – | – | – | – | – |
| COc1ccc(-c2nc(Nc3ccc(S(N)(=O)=O)cc3)c3cc(I)ccc3n2)cc1 [Compound 3b, 6-Iodo-4-(4-aminosulphonylphenyl-amino)-2-(4-methoxyphenyl)-quinazoline] | 6.1 ± 0.12 | 7.3 ± 0.8 | 9.1 ± 1.8 | 6 to 9 | 7.3 ± 0.9 | 16 (≈ 30.1 µM) | 3690 nM and 3750 nM | 8 (≈ 15 µM) | 10 | 2 (≈ 3.76 µM) | 18 | 10 | 12 | > 50 | 32 (≈ 60.1 µM) | – | – |
| O=C(O)c1cn(C2CC2)c2cc(N3CCNCC3)c(F)cc2c1=O [Ciprofloxacin, reference compound] | – | – | – | – | – | – | – | – | – | – | 21 | 25 | 25 | – | – | – | – |
